Laboratory results: patent US8592468B2, “Bacterial thioredoxin reductase inhibitors and methods for use thereof” (Thioredoxin Systems AB, priority 2006, dated 2013)
pKi: −log10 of the molar value. Converted amounts (≈) assume the structure as drawn.

Experiments:
Gor^- DHB4 E. coli = assay: Bacterial inhibition by ebselen derivates, MIC; conditions: Escherichia coli, 4 h, read-out: MIC for Gor^- DHB4 E. coli
Experimental: (§1) E. coli DHB4 strains wt, gshA^−, gor^−, oxyR^− were cultured overnight in LB medium. […] OD 600 was detected and DMSO was used as the control. […] The data are the means of two experiments.

wild type DHB4 E. coli = assay: Bacterial inhibition by ebselen derivates, MIC; conditions: Escherichia coli, DHB4E.COLI, 4 h, read-out: MIC for wild type DHB4 E. coli
Experimental: as §1

E. coli TrxR = E. coli TrxR (Escherichia coli (strain K12), UniProt P0A9P4); assay: Inhibition of E. coli TrxR reduction of Trx, DTNB coupled assay (Lineweaver-Burk); assay type: biochemical
Experimental: FIGS. 4A and 4B show the effect of ebselen (FIG. 4A) and ebselen diselenide (FIG. 4B) on DTNB reduction by E. coli thioredoxin and thioredoxin reductase. Assays were contained in 0.50 ml semi-microcuvettes containing 0.24 mM NADPH, 1 mM DTNB in 0.10 M Tris-Cl, pH 8.0, 1 mM EDTA. The increase in A412 was measured against a blank using 10 nM E. coli TrxR in the presence of 2 μM (grey filled points), 5 μM (white filled points), 10 μM (black filled points) E. coli Trx with 0 (squares), 0.5 μM (triangles), 1 μM (rhombus), 2 μM (rounds) of ebselen or ebselen diselenide.
(A) Ebselen concentrations were 0 μM (▴), 0.5 μM (∀), 1 μM (▪) and 2 μM (Δ). […] (B) Ebselen concentrations were 0 μM (▴), 1 μM (▪) and 2 μM (∀).
The activity of the enzyme was determined at room temperature using an Ultrospec 3000 UV/Visual spectrophotometer (Amersham Biosciences). […] The enzyme-catalysed reactions were followed at 340 nm using the standard calculation of NADPH oxidation to NADP^+ with a molar extinction coefficient of 6200 M^−1 cm^−1 (32, 34). The conditions of the assay of bacterial thioredoxin reductase have been described (32, 34) using either 1 mM DTNB or 160 μM insulin as a substrate. In DTNB coupled assays, 240 μM NADPH and 1 mM DTNB were used in the TE buffer and formation of the TNB was measured at 412 nm, where TNB has an extinction coefficient of 13600 M^−1 cm^−1.
Further we examined the effect of ebselen in the reduction of disulphide by E. coli Trx and TrxR using both DTNB and insulin as substrates. […] FIGS. 4A and 4B show the effect of ebselen (4A) and ebselen diselenide (4B) on DTNB reduction by E. coli thioredoxin and thioredoxin reductase. Assays in semi-microcuvettes with 0.5 ml solution contained 0.24 mM NADPH, 1 mM DTNB in 50 mM Tris-Cl/1 mM EDTA, pH 7.5 buffer. (A) In the presence of 2 μM (grey filled points), 5 μM (white filled points) and 10 μM (black filled points) of E. coli Trx and 7.6 nM of E. coli TrxR with ebselen at concentrations of zero (squares), 0.5 μM (triangles), 1 μM (rhombus), and 2 μM (rounds), the increase in A412 was measured against a blank. (B) In the presence of 2 μM (grey filled points), 5 μM (white filled points) and 10 μM (black filled points) of E. coli Trx and 10 nM of E. coli TrxR, with ebselen diselenide at concentrations of zero (squares), 1 μM (triangles) and 2 μM (rounds), the increase in A412 was measured against a blank.

Mammalian TrxR = conditions: from reference; cited from earlier work

E. coli TrxR, sequence (P0A9P4 2-321 limits assumed): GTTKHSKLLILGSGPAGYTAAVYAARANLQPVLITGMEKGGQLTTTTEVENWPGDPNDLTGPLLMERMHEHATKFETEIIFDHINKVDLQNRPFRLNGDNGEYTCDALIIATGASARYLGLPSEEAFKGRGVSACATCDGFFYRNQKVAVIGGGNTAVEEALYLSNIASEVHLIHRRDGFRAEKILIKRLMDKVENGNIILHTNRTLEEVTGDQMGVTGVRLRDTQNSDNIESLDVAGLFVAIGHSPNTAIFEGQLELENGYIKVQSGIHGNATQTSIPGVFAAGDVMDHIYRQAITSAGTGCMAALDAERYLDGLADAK

For O=c1c2ccccc2[se]n1-c1ccccc1 [EbSe 6, 2-phenyl-1,2-benzisoselenazol-3(2H)-one], which MIC (Gor^- DHB4 E. coli) is on record?
The MIC was 15 µM (≈ 4.11 µg/mL).

What about the MIC (wild type DHB4 E. coli) of the same compound?
The MIC was 40 µM (≈ 11 µg/mL).

And the “inhibition of E. coli TrxR (in words)” value (E. coli TrxR)?
The value was “strongly inhibited”.

And the pKi (E. coli TrxR; Ki (competitive inhibitor of Trx reduction by E. coli TrxR), from Lineweaver-Burk slopes)?
Its pKi is 6.82.

And the Km (Mammalian TrxR)?
The Km was 2500 nM.

And the kcat (Mammalian TrxR)?
The kcat was 588 min⁻¹.

And the kcat/KM (Mammalian TrxR)?
Its kcat/KM is 235 µM⁻¹ min⁻¹.
